Measurements reported in patent US8318674B2, “Local treatment of bone defects” (Kuros Biosurgery AG, priority 2005, dated 2012).

Tests used:
[1] = Stability of PTH or TGPTH in buffer (spiked samples, direct ELISA); assay type: physicochemical; conditions: 0.5 μg/mL, 37° C., distilled water, phosphate buffer saline, tris-buffer saline
Description: For the first release assay, a fibrin matrix of 50 μl with 0.1 mg PTH or TGPTH per ml fibrin matrix was incubated at 37° C. in 10 ml buffer. Therefore, the concentration of PTH or TGPTH in the buffer in case of a total release would be 0.5 μg PTH or TGPTH/mL fibrin matrix. In order to compare the stability of PTH or TGPTH during the assay, samples of PTH or TGPTH were diluted directly in the buffer to a concentration of 0.5 μg PTH or TGPTH/mL fibrin matrix. Different buffers were tested: distilled water, phosphate buffer saline, tris-buffer saline.
Aliquots were taken at days 0, 1, 2, 4 and 6 and analysed by direct ELISA. […] Therefore, no conclusion could be made on the release data. The PTH stability was certainly affected by its low concentration and the buffers that were not optimal.
The release experiment was repeated by using a stabilizing buffer containing 50 mM mannitol in a 10 mM sodium acetate buffer. In addition, the buffer was exchanged every 2 days in order to prevent any degradation of peptide. […] The concentration of PTH or TGPTH in the buffer in case of a total release would be 100 μg/mL fibrin matrix (200 times more than before). […] Samples were collected every 2 to 4 days (with a change of buffer) during 2 weeks and analysed by direct ELISA. […]

[2] = biological target: T1, parathyroid hormone receptor (Homo sapiens, UniProt Q03431); assay: Reporter gene assay for bioactivity of PTH fusion peptides; assay type: cell-based; conditions: luciferase reporter linked to PTH receptor promoter; equal amounts; compared to international 84 amino acid standard
T1 construct: endogenous in cells; transfected only with a luciferase reporter plasmid driven by the PTH receptor promoter
T1 sequence (Q03431 27-593): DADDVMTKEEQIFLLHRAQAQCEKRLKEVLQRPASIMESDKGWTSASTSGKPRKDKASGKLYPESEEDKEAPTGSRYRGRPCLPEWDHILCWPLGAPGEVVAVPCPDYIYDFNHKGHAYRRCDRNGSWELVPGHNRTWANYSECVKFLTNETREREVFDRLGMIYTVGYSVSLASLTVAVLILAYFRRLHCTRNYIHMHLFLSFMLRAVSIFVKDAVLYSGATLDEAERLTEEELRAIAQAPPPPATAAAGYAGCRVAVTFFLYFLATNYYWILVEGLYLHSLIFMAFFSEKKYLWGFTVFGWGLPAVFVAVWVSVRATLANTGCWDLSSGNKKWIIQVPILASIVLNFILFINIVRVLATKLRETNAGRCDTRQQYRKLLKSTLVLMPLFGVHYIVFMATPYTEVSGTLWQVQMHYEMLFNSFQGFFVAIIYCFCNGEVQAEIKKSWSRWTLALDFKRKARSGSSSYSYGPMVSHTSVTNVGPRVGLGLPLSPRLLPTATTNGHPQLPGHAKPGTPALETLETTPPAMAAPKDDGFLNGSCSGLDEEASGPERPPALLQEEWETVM
Description: Cells transfected with a reporter gene linked to a promoter for a PTH receptor were treated with equal amounts of either PTH1-34, TG-pl-PTH1-34 (described hereinafter) or the international 84 amino acid standard. The inhibition of expression of the luciferase reporter gene was measured and compared to transfected cells that were not exposed to PTH in solution (control).
To study the bioactivity of the PTH fusion peptides, a reporter gene assay was established. In this assay, a plasmid that contains luciferase reporter gene which is linked to the promoter for the parathyroid hormone receptor is transfected into cells. Then, if the cell is exposed to PTH and the PTH subsequently binds to its receptor on the cell, a signal cascade, directed through elevated cAMP levels, is initiated. Through a natural feedback regulation, this then leads to a reduction of PTH receptor levels. As the reduction is directed through the promoter, it also then leads to a decrease in production of the linked reporter gene. Using this assay, the activity of both native PTH1-34 as well as TG-pl-PTH1-34 were studied and compared to an international standard.

stability in buffer [1] [days] | Compound | level of activity (reduction in reporter gene expression) [2]
≤ 2 | CC[C@H](C)[C@H](NC(=O)[C@H](CCC(=O)O)NC(=O)[C@H](CO)NC(=O)[C@@H](NC(=O)[C@@H](N)CO)C(C)C)C(=O)N[C@@H](CCC(N)=O)C(=O)N[C@@H](CC(C)C)C(=O)N[C@@H](CCSC)C(=O)N[C@@H](Cc1cnc[nH]1)C(=O)N[C@@H](CC(N)=O)C(=O)N[C@@H](CC(C)C)C(=O)NCC(=O)N[C@@H](CCCCN)C(=O)N[C@@H](Cc1cnc[nH]1)C(=O)N[C@@H](CC(C)C)C(=O)N[C@@H](CC(N)=O)C(=O)N[C@@H](CO)C(=O)N[C@@H](CCSC)C(=O)N[C@@H](CCC(=O)O)C(=O)N[C@@H](CCCN=C(N)N)C(=O)N[C@H](C(=O)N[C@@H](CCC(=O)O)C(=O)N[C@@H](Cc1c[nH]c2ccccc12)C(=O)N[C@@H](CC(C)C)C(=O)N[C@@H](CCCN=C(N)N)C(=O)N[C@@H](CCCCN)C(=O)N[C@@H](CCCCN)C(=O)N[C@@H](CC(C)C)C(=O)N[C@@H](CCC(N)=O)C(=O)N[C@@H](CC(=O)O)C(=O)N[C@H](C(=O)N[C@@H](Cc1cnc[nH]1)C(=O)N[C@@H](CC(N)=O)C(=O)N[C@@H](Cc1ccccc1)C(=O)O)C(C)C)C(C)C [PTH1-34] | –
– | NQEQVSPLYKNRSVSEIQLMHNLGKHLNSMERVEWLRKKLQDVHNF [TG-pl-PTH1-34] | the same as for the international standard
